# Results published in EP0942911B1, “BENZOPYRANOPYRROLE AND BENZOPYRANOPYRIDINE ALPHA-1 ADRENERGIC COMPOUNDS” (Abbott Laboratories, priority 1996, dated 1998).
# Structures can show the parent of a compound that is named as a salt.
# What was measured:
# α-1d adrenoreceptor = biological target: T1, α-1d adrenoreceptor (Rattus norvegicus, UniProt P23944); assay: biochemical; format: binding; details: [3H]-prazosin radioligand; cloned receptor in LTK cell membranes; read-out: Radioligand Binding (Ki, nM) 1d (Rat)
# T1 sequence (P23944 1-561): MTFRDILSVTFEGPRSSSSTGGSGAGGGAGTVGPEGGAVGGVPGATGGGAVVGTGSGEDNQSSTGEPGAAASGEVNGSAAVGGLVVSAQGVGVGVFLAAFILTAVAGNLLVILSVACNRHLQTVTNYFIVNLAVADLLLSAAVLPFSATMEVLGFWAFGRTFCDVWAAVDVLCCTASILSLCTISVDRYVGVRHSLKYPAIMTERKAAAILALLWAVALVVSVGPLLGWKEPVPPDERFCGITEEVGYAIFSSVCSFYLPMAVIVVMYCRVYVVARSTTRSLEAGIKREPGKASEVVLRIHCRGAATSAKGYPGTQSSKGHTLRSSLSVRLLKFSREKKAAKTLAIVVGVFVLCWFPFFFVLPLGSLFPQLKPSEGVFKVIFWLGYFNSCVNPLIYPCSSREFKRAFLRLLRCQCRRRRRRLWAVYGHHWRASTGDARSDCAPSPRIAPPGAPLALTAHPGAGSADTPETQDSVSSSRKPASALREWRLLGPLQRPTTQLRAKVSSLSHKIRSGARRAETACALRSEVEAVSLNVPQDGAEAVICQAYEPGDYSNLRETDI
# Summary of the method: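 Membranes from LTK mouse fibroblast clones stably transfected with α-1a, α-1b or α-1d cDNA, resuspended in 50 mM Tris-HCl pH 7.4, served for radioligand displacement read by liquid scintillation. Rat submaxillary gland tissue supplied the α-1A receptor.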
# α-1A adrenoreceptor = biological target: T2, α-1A adrenoreceptor (Rattus norvegicus, UniProt P43140); assay: cell-based; details: phenylephrine-induced contraction; Schild plot; read-out: In Vitro Characterization (pA2) Rat Vas (converted)
# T2 sequence (P43140 1-466): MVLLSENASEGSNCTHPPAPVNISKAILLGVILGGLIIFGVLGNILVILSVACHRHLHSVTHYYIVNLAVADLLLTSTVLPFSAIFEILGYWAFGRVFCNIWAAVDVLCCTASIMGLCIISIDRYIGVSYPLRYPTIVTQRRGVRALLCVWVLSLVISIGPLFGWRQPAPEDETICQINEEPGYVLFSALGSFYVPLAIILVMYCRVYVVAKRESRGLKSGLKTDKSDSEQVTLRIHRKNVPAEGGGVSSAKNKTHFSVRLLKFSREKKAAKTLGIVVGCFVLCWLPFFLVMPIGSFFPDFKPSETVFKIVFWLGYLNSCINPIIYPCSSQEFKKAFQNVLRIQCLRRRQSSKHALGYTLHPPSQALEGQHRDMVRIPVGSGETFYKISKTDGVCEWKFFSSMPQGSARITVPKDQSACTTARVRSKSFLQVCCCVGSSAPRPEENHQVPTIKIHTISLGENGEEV
# Summary of the method: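 Phenylephrine dose-response curves for contraction were repeated against increasing test-agent concentrations. pA2 was derived by Schild plot [[…] vs log molarity of test agent].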
Compound,Ki (α-1d adrenoreceptor) [nM],Kb (α-1A adrenoreceptor) [nM]
"COc1cccc2c1[C@@H]1CN(CCCCn3c(=O)[nH]c4c(sc5ccncc54)c3=O)C[C@H]1CO2 [Example 41, 3-[4-((3aS,9bR)-trans-9-Methoxy-1,2,3,3a,4,9b-hexahydro-[1]-benzopyrano[3,4-c]pyrrol-2-yl)butyl]-pyrido[3',4':4,5]thieno[3,2-d]pyrimidine-2,4(1H,3H)-dione dihydrochloride]",0.041,0.355
"COc1cccc2c1[C@@H]1CN(CCCCn3c(=O)[nH]c4c(sc5cnccc54)c3=O)C[C@H]1CO2 [Example 42, 3-[4-((3aS,9bR)-trans-9-Methoxy-1,2,3,3a,4,9b-hexahydro-[1]-benzopyrano[3,4-c]pyrrol-2-yl)butyl]-pyrido[4',3':4,5]thieno[3,2-d]pyrimidine-2,4(1H,3H)-dione dihydrochloride]",0.066,0.257
"COc1cccc2c1[C@@H]1CN(CCCCn3c(=O)[nH]c4c(sc5ncccc54)c3=O)C[C@H]1CO2 [Example 44, 3-[4-((3aS,9bR)-trans-9-Methoxy-1,2,3,3a,4,9b-hexahydro-[1]-benzopyrano[3,4-c]pyrrol-2-yl)butyl]-pyrido[3',2':4,5]thieno[3,2-d]pyrimidine-2,4(1H,3H)-dione hydrochloride]",0.081,0.11
"COc1cccc2c1[C@@H]1CN(CCCCn3c(=O)[nH]c4c(sc5nc(C)ccc54)c3=O)C[C@H]1CO2 [Example 45, 3-[4-((3aS,9bR)-trans-9-Methoxy-1,2,3,3a,4,9b-hexahydro-[1]-benzopyrano[3,4-c]pyrrol-2-yl)butyl]-7-methyl-pyrido[3',2':4,5]thieno[3,2-d]pyrimidine-2,4(1H,3H)-dione hydrochloride]",0.104,0.257
"COc1ccc2c(n1)sc1c(=O)n(CCCCN3C[C@H]4COc5cccc(OC)c5[C@@H]4C3)c(=O)[nH]c12 [Example 46, 3-[4-((3aS,9bR)-trans-9-Methoxy-1,2,3,3a,4,9b-hexahydro-[1]-benzopyrano[3,4-c]pyrrol-2-yl)butyl]-7-methoxy-pyrido[3',2':4,5]thieno[3,2-d]pyrimidine-2,4(1H,3H)-dione hydrochloride]",0.114,0.162
"COc1cccc2c1[C@@H]1CN(CCCCn3c(=O)[nH]c4c(sc5nc(Cl)ccc54)c3=O)C[C@H]1CO2 [Example 47, 3-[4-((3aS,9bR)-trans-9-Methoxy-1,2,3,3a,4,9b-hexahydro-[1]-benzopyrano[3,4-c]pyrrol-2-yl)butyl]-7-chloro-pyrido[3',2':4,5]thieno[3,2-d]pyrimidine-2,4(1H,3H)-dione hydrochloride]",0.189,1.12
"COc1cccc2c1[C@@H]1CN(CCCCn3c(=O)[nH]c4c(sc5ncc(-c6ccccc6)nc54)c3=O)C[C@H]1CO2 [Example 50, 3-[4-((3aS,9bR)-trans-9-Methoxy-1,2,3,3a,4,9b-hexahydro-[1]-benzopyrano[3,4-c]pyrrol-2-yl)butyl]-8-phenyl-pyrazino[2',3':4,5]thieno[3,2-d]pyrimidine-2,4(1H,3H)-dione hydrochloride]",0.391,0.0447
"COc1cccc2c1[C@@H]1CN(CCCCn3c(=O)[nH]c4c(sc5ccc(OC(C)C)nc54)c3=O)C[C@H]1CO2 [Example 51, 3-[4-((3aS,9bR)-trans-9-Methoxy-1,2,3,3a,4,9b-hexahydro-[1]-benzopyrano[3,4-c]pyrrol-2-yl)butyl]-8-isopropoxy-pyrido[2',3':4,5]thieno[3,2-d]pyrimidine-2,4(1H,3H)-dione hydrochloride]",0.371,0.631
"COc1cccc2c1[C@@H]1CN(CCCCn3c(=O)[nH]c4c(sc5c(Cl)nccc54)c3=O)C[C@@H]1CO2 [Example 53, 3-[4-((3aR,9bR)-cis-9-Methoxy-1,2,3,3a,4,9b-hexahydro-[1]-benzopyrano[3,4-c]pyrrol-2-yl)butyl]-6-chloro-pyrido[4',3':4,5]thieno[3,2-d]pyrimidine-2,4(1H,3H)-dione]",0.664,0.49
"COc1cccc2c1[C@@H]1CCN(CCCCn3c(=O)[nH]c4c(sc5ncc(Cl)nc54)c3=O)C[C@H]1CO2 [Example 97, 3-[4-((4aS,10bR)-trans-10-Methoxy-1,3,4,4a,5,10b-hexahydro-2H-[1]-benzopyrano[3,4-c]pyrido-3-yl)butyl]-8-chloro-pyrazino[2',3':4,5]thieno[3,2-d]pyrimidine-2,4(1H,3H)-dione dihydrochloride]",0.247,1.55
